Columns and labels:
Type in all cases: in vivo
[1] = system: Eimeria tenella; assay: Cage experiment on coccidiosis/chicks, E. tenella readout; conditions: for Efficacy against Eimeria tenella: third symbol of cell; as to Efficacy against Eimeria tenella: key: 2=full action; 1=slight action; 0=inactive; D=death
[2] = system: Eimeria maxima; assay: Cage experiment on coccidiosis/chicks, E. maxima readout; conditions: for Efficacy against Eimeria maxima: second symbol of cell; as to Efficacy against Eimeria maxima: key: 2=full action; 1=slight action; 0=inactive; D=death
[3] = system: Eimeria acervulina; assay: Cage experiment on coccidiosis/chicks, E. acervulina readout; conditions: for Efficacy against Eimeria acervulina: first symbol of cell; as to Efficacy against Eimeria acervulina: key: 2=full action; 1=slight action; 0=inactive; D=death
[4] = system: Eimeria acervulina, Eimeria maxima and Eimeria tenella; assay: Cage experiment on coccidiosis/chicks, mixed experimental infection; conditions: for dropping scores / lesion score: assessment 0 to 6; for mortality n: dead animals/animals employed
Procedure: 8 to 12 day-old male chicks (e.g. LSL Brinkschulte/Senden) which have been reared coccidia-free receive the compounds according to the invention (test substances) in the concentration indicated in ppm with the feed from 3 days before (day −3) infection (=a.i.) until 8 (9) days after infection (=p.i.). 3 animals are kept in each cage. One or more groups of this type are employed per dose. Infection is carried out by means of a stomach tube directly into the crop with approximately 100,000 sporulated oocysts of Eimeria acervulina and with approximately 30,000 oocysts each of E. maxima and 40,000 sporulated oocysts of E. tenella. These are highly virulent strains. The exact infection dose is adjusted so that, if possible, one of three experimentally infected untreated chicks dies due to the infection. For assessment of the efficacy, the following criteria are taken into account: weight increase from the start of the experiment to the end of the experiment, death rate due to infection, macroscopic assessment of the faeces with respect to diarrhoea and excretion of blood on days 5 and 7 p.i. (assessment 0 to 6), macroscopic assessment of the intestinal mucosa, in particular of the appendices (assessment 0 to 6) and the oocyst excretion as well as the proportion (in %) of the oocysts sporulating in the course of 24 hours. The number of oocysts in the faeces was determined with the aid of a McMaster counting chamber (see Engelbrecht and coworkers “Parasitologische Arbeitsmethoden in Medizin and Veterinärmedizin” [Parasitological Working Methods in Medicine and Veterinary Medicine], Akademie-Verlag, Berlin (1965)). The individual findings are related to the untreated non-infected control groups and a total score is calculated (cf. A. Haberkorn (1986), pp. 263 to 270 in Research in Avian Coccidiosis ed L. R. McDougald, L. P. Joyner, P. L. Long, Proceedings of the Georgia Coccidiosis Conference, Nov. 18-20, 1985. Athens/Georgia USA).
In the column “ppm”, the concentration of the active compound employed in the feed is indicated in ppm.
In the column “mortality” the percentage of the dead animals is indicated under % and the number of dead animals/animals employed in the experiment is indicated under n.
In the column “weight % of not inf. control” the ratio of the weight of the treated animals to the weight of the non-infected control group is indicated.
In the columns “dropping scores”, “lesion score” and “oocyst control”, individual details of the action are given.
In the column “% efficacy”, the total score is assessed; 0% means no action, 100% means full action.

CCN(Cn1c(C(F)(F)F)nc2c(Br)cc3c(c21)OC(F)(F)C(F)(F)O3)C(=O)OC [Ex. 1]
oocyst in % of inf. control ten. ([1]; Table 1, 7.5 ppm in feed): 1%
oocyst in % of inf. control ten. ([1]; Table 1, 10 ppm in feed): 1%
oocyst in % of inf. control ten. ([1]; Table 2, 1 ppm in feed): 97%
oocyst in % of inf. control ten. ([1]; Table 2, 2.5 ppm in feed): 55%
oocyst in % of inf. control ten. ([1]; Table 2, 5 ppm in feed): 11%
oocyst in % of inf. control ten. ([1]; Table 3, 5 ppm in feed): 30%
oocyst in % of inf. control ten. ([1]; Table 3, 7.5 ppm in feed): 1%
oocyst in % of inf. control ten. ([1]; Table 3, 10 ppm in feed): 1%
Efficacy against Eimeria tenella ([1]; Table 4, dose 2.5 ppm): 1
Efficacy against Eimeria tenella ([1]; Table 4, dose 5 ppm): 2
Efficacy against Eimeria tenella ([1]; Table 4, dose 10 ppm): 2
oocyst in % of inf. control max. ([2]; Table 1, 7.5 ppm in feed): 0%
oocyst in % of inf. control max. ([2]; Table 1, 10 ppm in feed): 0%
oocyst in % of inf. control max. ([2]; Table 2, 1 ppm in feed): 100%
oocyst in % of inf. control max. ([2]; Table 2, 2.5 ppm in feed): 100%
oocyst in % of inf. control max. ([2]; Table 2, 5 ppm in feed): 100%
oocyst in % of inf. control max. ([2]; Table 3, 5 ppm in feed): 0%
oocyst in % of inf. control max. ([2]; Table 3, 7.5 ppm in feed): 0%
oocyst in % of inf. control max. ([2]; Table 3, 10 ppm in feed): 0%
Efficacy against Eimeria maxima ([2]; Table 4, dose 2.5 ppm): 1
Efficacy against Eimeria maxima ([2]; Table 4, dose 5 ppm): 2
Efficacy against Eimeria maxima ([2]; Table 4, dose 10 ppm): 2
oocyst in % of inf. control ac. ([3]; Table 1, 7.5 ppm in feed): 3%
oocyst in % of inf. control ac. ([3]; Table 1, 10 ppm in feed): 0%
oocyst in % of inf. control ac. ([3]; Table 2, 1 ppm in feed): 49%
oocyst in % of inf. control ac. ([3]; Table 2, 2.5 ppm in feed): 19%
oocyst in % of inf. control ac. ([3]; Table 2, 5 ppm in feed): 1%
oocyst in % of inf. control ac. ([3]; Table 3, 5 ppm in feed): 6%
oocyst in % of inf. control ac. ([3]; Table 3, 7.5 ppm in feed): 3%
oocyst in % of inf. control ac. ([3]; Table 3, 10 ppm in feed): 0%
Efficacy against Eimeria acervulina ([3]; Table 4, dose 2.5 ppm): 1
Efficacy against Eimeria acervulina ([3]; Table 4, dose 5 ppm): 2
Efficacy against Eimeria acervulina ([3]; Table 4, dose 10 ppm): 2
% efficacy tot. ([4]; Table 1, 7.5 ppm in feed): 65%
mortality % ([4]; Table 1, 7.5 ppm in feed): 0%
oocyst in % of inf. control tot. ([4]; Table 1, 7.5 ppm in feed): 1.3%
weight % of not inf. control ([4]; Table 1, 7.5 ppm in feed): 76%
dropping scores ([4]; Table 1, 7.5 ppm in feed): 6
lesion score ([4]; Table 1, 7.5 ppm in feed): 5.3
mortality n ([4]; Table 1, 7.5 ppm in feed): 0/3
% efficacy tot. ([4]; Table 1, 10 ppm in feed): 75%
mortality % ([4]; Table 1, 10 ppm in feed): 0%
oocyst in % of inf. control tot. ([4]; Table 1, 10 ppm in feed): 0%
weight % of not inf. control ([4]; Table 1, 10 ppm in feed): 84%
dropping scores ([4]; Table 1, 10 ppm in feed): 6
lesion score ([4]; Table 1, 10 ppm in feed): 3.3
mortality n ([4]; Table 1, 10 ppm in feed): 0/3
% efficacy tot. ([4]; Table 2, 1 ppm in feed): 36%
mortality % ([4]; Table 2, 1 ppm in feed): 33%
oocyst in % of inf. control tot. ([4]; Table 2, 1 ppm in feed): 82%
weight % of not inf. control ([4]; Table 2, 1 ppm in feed): 31%
dropping scores ([4]; Table 2, 1 ppm in feed): 6
lesion score ([4]; Table 2, 1 ppm in feed): 6
mortality n ([4]; Table 2, 1 ppm in feed): 1/3
% efficacy tot. ([4]; Table 2, 2.5 ppm in feed): 36%
mortality % ([4]; Table 2, 2.5 ppm in feed): 33%
oocyst in % of inf. control tot. ([4]; Table 2, 2.5 ppm in feed): 58%
weight % of not inf. control ([4]; Table 2, 2.5 ppm in feed): 42%
dropping scores ([4]; Table 2, 2.5 ppm in feed): 4-6
lesion score ([4]; Table 2, 2.5 ppm in feed): 6
mortality n ([4]; Table 2, 2.5 ppm in feed): 1/3
% efficacy tot. ([4]; Table 2, 5 ppm in feed): 90%
mortality % ([4]; Table 2, 5 ppm in feed): 0%
oocyst in % of inf. control tot. ([4]; Table 2, 5 ppm in feed): 37%
weight % of not inf. control ([4]; Table 2, 5 ppm in feed): 110%
dropping scores ([4]; Table 2, 5 ppm in feed): 1
lesion score ([4]; Table 2, 5 ppm in feed): 0
mortality n ([4]; Table 2, 5 ppm in feed): 0/3
% efficacy tot. ([4]; Table 3, 5 ppm in feed): 45%
mortality % ([4]; Table 3, 5 ppm in feed): 0%
oocyst in % of inf. control tot. ([4]; Table 3, 5 ppm in feed): 12%
weight % of not inf. control ([4]; Table 3, 5 ppm in feed): 72%
dropping scores ([4]; Table 3, 5 ppm in feed): 6
lesion score ([4]; Table 3, 5 ppm in feed): 6
mortality n ([4]; Table 3, 5 ppm in feed): 0/3
% efficacy tot. ([4]; Table 3, 7.5 ppm in feed): 65%
mortality % ([4]; Table 3, 7.5 ppm in feed): 0%
oocyst in % of inf. control tot. ([4]; Table 3, 7.5 ppm in feed): 1.3%
weight % of not inf. control ([4]; Table 3, 7.5 ppm in feed): 76%
dropping scores ([4]; Table 3, 7.5 ppm in feed): 6
lesion score ([4]; Table 3, 7.5 ppm in feed): 5.3
mortality n ([4]; Table 3, 7.5 ppm in feed): 0/3
% efficacy tot. ([4]; Table 3, 10 ppm in feed): 75%
mortality % ([4]; Table 3, 10 ppm in feed): 0%
oocyst in % of inf. control tot. ([4]; Table 3, 10 ppm in feed): 0%
weight % of not inf. control ([4]; Table 3, 10 ppm in feed): 84%
dropping scores ([4]; Table 3, 10 ppm in feed): 6
lesion score ([4]; Table 3, 10 ppm in feed): 3.3
mortality n ([4]; Table 3, 10 ppm in feed): 0/3

CCOC(=O)N(Cn1c(C(F)(F)F)nc2c(Cl)cc3c(c21)OC(F)(F)C(F)(F)O3)C1CCCCC1 [Ex. 9]
Efficacy against Eimeria tenella ([1]; Table 4, dose 2.5 ppm): 1
Efficacy against Eimeria tenella ([1]; Table 4, dose 5 ppm): 1
Efficacy against Eimeria tenella ([1]; Table 4, dose 10 ppm): 2
Efficacy against Eimeria maxima ([2]; Table 4, dose 2.5 ppm): 1
Efficacy against Eimeria maxima ([2]; Table 4, dose 5 ppm): 2
Efficacy against Eimeria maxima ([2]; Table 4, dose 10 ppm): 2
Efficacy against Eimeria acervulina ([3]; Table 4, dose 2.5 ppm): 0
Efficacy against Eimeria acervulina ([3]; Table 4, dose 5 ppm): 2
Efficacy against Eimeria acervulina ([3]; Table 4, dose 10 ppm): 2

CO[C@@H]1[C@@H](OC)[C@H](C)[C@@](O)(CC(=O)O)O[C@H]1[C@H](C)[C@H]1O[C@@]2(CC[C@@](C)([C@H]3CC[C@@](C)([C@@H]4O[C@@H]([C@H]5O[C@](C)(O)[C@H](C)C[C@@H]5C)C[C@@H]4O[C@@H]4C[C@H](OC)[C@@H](OC)[C@H](C)O4)O3)O2)C[C@H](O)[C@H]1C [MAD, Maduramicin, reference compound]
oocyst in % of inf. control ten. ([1]; Table 2, 1 ppm in feed): 30%
oocyst in % of inf. control ten. ([1]; Table 2, 2 ppm in feed): 45%
oocyst in % of inf. control ten. ([1]; Table 2, 3 ppm in feed): 3%
oocyst in % of inf. control max. ([2]; Table 2, 1 ppm in feed): 100%
oocyst in % of inf. control max. ([2]; Table 2, 2 ppm in feed): 100%
oocyst in % of inf. control max. ([2]; Table 2, 3 ppm in feed): 0%
oocyst in % of inf. control ac. ([3]; Table 2, 1 ppm in feed): 8%
oocyst in % of inf. control ac. ([3]; Table 2, 2 ppm in feed): 8%
oocyst in % of inf. control ac. ([3]; Table 2, 3 ppm in feed): 1%
% efficacy tot. ([4]; Table 2, 1 ppm in feed): 73%
mortality % ([4]; Table 2, 1 ppm in feed): 0%
oocyst in % of inf. control tot. ([4]; Table 2, 1 ppm in feed): 46%
weight % of not inf. control ([4]; Table 2, 1 ppm in feed): 93%
dropping scores ([4]; Table 2, 1 ppm in feed): 1
lesion score ([4]; Table 2, 1 ppm in feed): 2
mortality n ([4]; Table 2, 1 ppm in feed): 0/3
% efficacy tot. ([4]; Table 2, 2 ppm in feed): 84%
mortality % ([4]; Table 2, 2 ppm in feed): 0%
oocyst in % of inf. control tot. ([4]; Table 2, 2 ppm in feed): 51%
weight % of not inf. control ([4]; Table 2, 2 ppm in feed): 114%
dropping scores ([4]; Table 2, 2 ppm in feed): 0
lesion score ([4]; Table 2, 2 ppm in feed): 2
mortality n ([4]; Table 2, 2 ppm in feed): 0/3
% efficacy tot. ([4]; Table 2, 3 ppm in feed): 100%
mortality % ([4]; Table 2, 3 ppm in feed): 0%
oocyst in % of inf. control tot. ([4]; Table 2, 3 ppm in feed): 1.3%
weight % of not inf. control ([4]; Table 2, 3 ppm in feed): 112%
dropping scores ([4]; Table 2, 3 ppm in feed): 0
lesion score ([4]; Table 2, 3 ppm in feed): 0
mortality n ([4]; Table 2, 3 ppm in feed): 0/3

Reference: patent publication US6620833B1, “Substituted benzimidazoles, production and use thereof as agents for combating parasitic protozoas” (Bayer Aktiengesellschaft, priority 1998, dated 2003)
